Source: US20110184025A1, “Methods and Compositions Using Immunomodulatory Compounds for the Treatment and Management of Spirochete and Other Obligate Intracellular Bacterial Diseases” (priority 2006, published 2011)

Key:
[1] = system: IL-2; test: Augmentation of IL-2 production following TCR activation of PBMC; assay type: cell-based
[2] = system: IFN-γ; test: Augmentation of IFN-γ production following TCR activation of T-cells; assay type: cell-based
[3] = system: Beagle dogs; test: Cardiovascular and respiratory function in anesthetized dogs; conditions: anesthetized Beagle dogs, 2, 10 and 20 mg/kg infusion via jugular vein, all doses
[4] = system: T-cells; test: Stimulation of T-cell proliferation following primary induction by TCR activation; assay type: cell-based
[5] = system: IL-10; test: LPS-stimulated production of IL-10 by PBMC; assay type: cell-based
[6] = Form A: among anhydrous polymorphs; Form E: in aqueous solvent systems; cited from earlier work

Compound | Potency relative to thalidomide in augmenting production of IL-2 [1] | Potency relative to thalidomide in augmenting production of IFN-γ [2] | Cardiovascular and respiratory changes compared to vehicle control [3] | Potency relative to thalidomide in stimulating proliferation of T-cells [4] | Effect on production of IL-10 by PBMC [5] | Relative stability of polymorph [6]
Nc1cccc2c1CN(C1CCC(=O)NC1=O)C2=O (stereo not shown) | 50-100 times | 50-100 times | minimal | 50-100 times | increased production | –
Nc1cccc2c1CN(C1CCC(=O)NC1=O)C2=O (stereo not shown) [Form A, 3-(4-amino-1-oxo-1,3 dihydro-isoindol-2-yl)-piperidene-2,6-dione] | – | – | – | – | – | most thermodynamically stable anhydrous polymorph
Nc1cccc2c1CN(C1CCC(=O)NC1=O)C2=O (stereo not shown) [Form E, 3-(4-amino-1-oxo-1,3 dihydro-isoindol-2-yl)-piperidene-2,6-dione] | – | – | – | – | – | most stable form
